System: moderate-to-severe chronic spontaneous urticaria (CSU)
Experiment: Phase 2 CSU study: urticaria activity score over 7 days (UAS7)
Type: in vivo, human
Conditions: for RRD (%) for rilzabrutinib vs. placebo, UAS7 = 0 / RRD (%) for rilzabrutinib vs. placebo, UAS7 ≤6 / Responder n (%), UAS7 = 0 / Responder n (%), UAS7 ≤6 / Imputed non-responder n (%), UAS7 = 0 / Imputed non-responder n (%), UAS7 ≤6 / Non-responder n (%), UAS7 = 0 / Non-responder n (%), UAS7 ≤6 / OR for rilzabrutinib vs. placebo, UAS7 = 0 / OR for rilzabrutinib vs. placebo, UAS7 ≤6: ITT, 400 mg TID; for UAS7 Post-baseline Mean (SD): Omalizumab-Naïve Population with Outlier Removed
Excerpt: The study comprises a 12 week, randomized, double-blind, placebo-controlled, multi-center, dose-ranging efficacy and safety phase, followed by a 40 week open label extension (OLE) phase (see FIG. 1). The study consists of three phases and an optional OLE phase. […] Clinically, CSU is characterized by the spontaneous and recurrent appearance of pruritic hives. The proposed primary endpoints were the UAS7 at Week 12 in EU and EU reference countries and the ISS7 in the US. Regardless of where a participant was from, all assessments were the same. The UAS7 score is a composite score containing both the HSS7 and the ISS7. This allowed a global assessment of the two key components of urticaria: hives and itch. […] The UAS is a validated PRO measure. […] The daily UAS scores range from 0 to 6 point/day. […] Patients were to complete the UAS using the e-diary. […] The following secondary endpoints were to be analyzed using the same approach as for the primary endpoint: • Change from baseline in UAS7 at Week 4 • Change from baseline in UAS7 at Week 12 (for US and US reference countries) • Change from baseline in ISS7 at Week 12 (except US and US reference countries) • Change from baseline in HSS7 at Week 12 The following responder secondary endpoints were to be analyzed using the Cochran-Mantel-Haenszel test adjusted by region: • Proportion of participants with UAS7<6 at Week 12 • Proportion of participants with UAS7=0 at Week 12 Participants who received selected prohibited medications and/or rescue medications were to be considered as non-responders for time points after the medication usage. For other participants, all available data including those collected during the off-treatment period were to be used to determine the responder/non-responder status. Missing data were to be considered as non-responders.

`CC(C)(C=C(C#N)C(=O)N1CCC[C@@H](n2nc(-c3ccc(Oc4ccccc4)cc3F)c3c(N)ncnc32)C1)N1CCN(C2COC2)CC1` [rilzabrutinib, (R)-2-[3-[4-amino-3-(2-fluoro-4-phenoxy-phenyl)pyrazolo[3,4-d]pyrimidin-1-yl]piperidine-1-carbonyl]-4-methyl-4-[4-(oxetan-3-yl)piperazin-1-yl]pent-2-enenitrile] was tested, and the “RRD (%) for rilzabrutinib vs. placebo, UAS7 = 0” value (“RRD (%) … UAS7 = 0” below) (Week 7) was 6.9 %, the “RRD (%) for rilzabrutinib vs. placebo, UAS7 ≤6” value (“RRD (%) … UAS7 ≤6” below) (Week 7) was 16.1 % and the “Responder n (%), UAS7 = 0” value (Week 7) was 4 (9.8) n (%). The “Responder n (%), UAS7 ≤6” value (Week 7) was 11 (26.8) n (%), the “Imputed non-responder n (%), UAS7 = 0” value (Week 8) was 8 (19.5) n (%) and the “Imputed non-responder n (%), UAS7 ≤6” value (Week 8) was 8 (19.5) n (%). For the same molecule, the “Non-responder n (%), UAS7 = 0” value (Week 8) was 37 (90.2) n (%), the “Non-responder n (%), UAS7 ≤6” value (Week 8) was 28 (68.3) n (%) and the “OR for rilzabrutinib vs. placebo, UAS7 = 0” value (Week 8) was 1.697. The “OR for rilzabrutinib vs. placebo, UAS7 ≤6” value (Week 8) was 2.257, the “RRD (%) … UAS7 = 0” value (Week 8) was 3.2 % and the “RRD (%) … UAS7 ≤6” value (Week 8) was 12.7 %. For the same molecule, the “Responder n (%), UAS7 = 0” value (Week 8) was 4 (9.8) n (%), the “Responder n (%), UAS7 ≤6” value (Week 8) was 13 (31.7) n (%) and the “Imputed non-responder n (%), UAS7 = 0” value (Week 9) was 7 (17.1) n (%). For the same molecule, the “Imputed non-responder n (%), UAS7 ≤6” value (Week 9) was 7 (17.1) n (%), the “Non-responder n (%), UAS7 = 0” value (Week 9) was 37 (90.2) n (%) and the “Non-responder n (%), UAS7 ≤6” value (Week 9) was 26 (63.4) n (%). The “OR for rilzabrutinib vs. placebo, UAS7 = 0” value (Week 9) was 1.117, the “OR for rilzabrutinib vs. placebo, UAS7 ≤6” value (Week 9) was 4.680 and the “RRD (%) … UAS7 = 0” value (Week 9) was 0.8 %. The “RRD (%) … UAS7 ≤6” value (Week 9) was 22.0 %, the “Responder n (%), UAS7 = 0” value (Week 9) was 4 (9.8) n (%) and the “Responder n (%), UAS7 ≤6” value (Week 9) was 15 (36.6) n (%). For the same molecule, the “Imputed non-responder n (%), UAS7 = 0” value (Week 10) was 7 (17.1) n (%), the “Imputed non-responder n (%), UAS7 ≤6” value (Week 10) was 7 (17.1) n (%) and the “Non-responder n (%), UAS7 = 0” value (Week 10) was 35 (85.4) n (%). For the same molecule, the “Non-responder n (%), UAS7 ≤6” value (Week 10) was 27 (65.9) n (%), the “OR for rilzabrutinib vs. placebo, UAS7 = 0” value (Week 10) was 1.210 and the “OR for rilzabrutinib vs. placebo, UAS7 ≤6” value (Week 10) was 2.074. The “RRD (%) … UAS7 ≤6” value (Week 10) was 12.9 %, the “Responder n (%), UAS7 = 0” value (Week 10) was 6 (14.6) n (%) and the “Responder n (%), UAS7 ≤6” value (Week 10) was 14 (34.1) n (%). The “Imputed non-responder n (%), UAS7 = 0” value (Week 11) was 6 (14.6) n (%), the “Imputed non-responder n (%), UAS7 ≤6” value (Week 11) was 6 (14.6) n (%) and the “Non-responder n (%), UAS7 = 0” value (Week 11) was 34 (82.9) n (%). For the same molecule, the “Non-responder n (%), UAS7 ≤6” value (Week 11) was 26 (63.4) n (%), the “OR for rilzabrutinib vs. placebo, UAS7 = 0” value (Week 11) was 3.449 and the “OR for rilzabrutinib vs. placebo, UAS7 ≤6” value (Week 11) was 2.322. For the same molecule, the “RRD (%) … UAS7 = 0” value (Week 11) was 10.4 %, the “RRD (%) … UAS7 ≤6” value (Week 11) was 15.0 % and the “Responder n (%), UAS7 = 0” value (Week 11) was 7 (17.1) n (%). The “Responder n (%), UAS7 ≤6” value (Week 11) was 15 (36.6) n (%), the “Imputed non-responder n (%), UAS7 = 0” value (Week 12) was 11 (26.8) n (%) and the “Imputed non-responder n (%), UAS7 ≤6” value (Week 12) was 11 (26.8) n (%). For the same molecule, the “Non-responder n (%), UAS7 = 0” value (Week 12) was 31 (75.6) n (%), the “Non-responder n (%), UAS7 ≤6” value (Week 12) was 26 (63.4) n (%) and the “OR for rilzabrutinib vs. placebo, UAS7 = 0” value (Week 12) was 1.995. For the same molecule, the “OR for rilzabrutinib vs. placebo, UAS7 ≤6” value (Week 12) was 3.721, the “RRD (%) … UAS7 = 0” value (Week 12) was 9.4 % and the “RRD (%) … UAS7 ≤6” value (Week 12) was 20.9 %. The “Responder n (%), UAS7 = 0” value (Week 12) was 10 (24.4) n (%), the “Responder n (%), UAS7 ≤6” value (Week 12) was 15 (36.6) n (%) and the “UAS7 Post-baseline Mean (SD)” value (400 mg BID, Week 1) was 19.77 (11.32). The “UAS7 Post-baseline Mean (SD)” value (400 mg BID, Week 2) was 19.59 (10.86), the “UAS7 Post-baseline Mean (SD)” value (400 mg BID, Week 3) was 17.71 (11.91) and the “UAS7 Post-baseline Mean (SD)” value (400 mg BID, Week 4) was 15.92 (11.71). The “UAS7 Post-baseline Mean (SD)” value (400 mg BID, Week 5) was 17.22 (13.36), the “UAS7 Post-baseline Mean (SD)” value (400 mg BID, Week 6) was 17.02 (12.76) and the “UAS7 Post-baseline Mean (SD)” value (400 mg BID, Week 7) was 15.55 (11.97). For the same molecule, the “UAS7 Post-baseline Mean (SD)” value (400 mg BID, Week 8) was 13.98 (13.06), the “UAS7 Post-baseline Mean (SD)” value (400 mg BID, Week 9) was 14.64 (14.43) and the “UAS7 Post-baseline Mean (SD)” value (400 mg BID, Week 10) was 15.22 (14.36). The “UAS7 Post-baseline Mean (SD)” value (400 mg BID, Week 11) was 15.06 (13.80), the “UAS7 Post-baseline Mean (SD)” value (400 mg BID, Week 12) was 15.61 (13.91) and the “UAS7 Post-baseline Mean (SD)” value (400 mg QPM, Week 1) was 23.81 (8.78).
